# In paper PMC11157767 (Molecular Cancer, 2024):
# Tested on: TFG-MET allograft tumors
# Test: RNA-sequencing, differential expression and GSEA of TFG-MET allograft tumors
# Assay type: in vivo, mouse
# Conditions: CAP v Veh
# Method: Error bars display standard error of mean, statistical significance was determined using t-test analysis. (****;p<0.0001, ***;p<0.001, **;p<0.01, *;p<0.05). […] Each dot represents an individual replicate. Error bars display standard error of the mean.
# Each dot represents one gene.
smiles,measurement,setting,value
CNC(=O)c1ccc(-c2cnc3ncc(Cc4ccc5ncccc5c4)n3n2)cc1F [Capmatinib],ES,GOMF_3_5_DNA_HELICASE_ACTIVITY,-0.6834
same,NES,"GOMF_3_5_DNA_HELICASE_ACTIVITY, padj 0.00671103",-1.906
same,ES,GOMF_ACTIVATING_TRANSCRIPTION_FACTOR_BINDING,-0.4071
same,NES,"GOMF_ACTIVATING_TRANSCRIPTION_FACTOR_BINDING, padj 0.0419799",-1.5828
same,ES,GOMF_ALPHA_ACTININ_BINDING,-0.5133
same,NES,"GOMF_ALPHA_ACTININ_BINDING, padj 0.0520078",-1.603
same,ES,GOMF_AMYLOID_BETA_BINDING,0.3131
same,NES,"GOMF_AMYLOID_BETA_BINDING, padj 0.0419799",1.527
same,ES,GOMF_ANTIOXIDANT_ACTIVITY,0.3898
same,NES,"GOMF_ANTIOXIDANT_ACTIVITY, padj 0.0072907",1.809
same,ES,GOMF_ATPASE_COUPLED_ION_TRANSMEMBRANE_TRANSPORTER_ACTIVITY,0.474
same,NES,"GOMF_ATPASE_COUPLED_ION_TRANSMEMBRANE_TRANSPORTER_ACTIVITY, padj 0.00463",2.003
same,ES,GOMF_BETA_2_MICROGLOBULIN_BINDING,0.5632
same,NES,"GOMF_BETA_2_MICROGLOBULIN_BINDING, padj 0.0448774",1.801
same,ES,GOMF_CALCIUM_DEPENDENT_PROTEIN_BINDING,0.337
same,NES,"GOMF_CALCIUM_DEPENDENT_PROTEIN_BINDING, padj 0.0607303",1.56
same,ES,GOMF_CARBOHYDRATE_BINDING,0.2512
same,NES,"GOMF_CARBOHYDRATE_BINDING, padj 0.0202682",1.428
same,ES,GOMF_CARBOXYLIC_ESTER_HYDROLASE_ACTIVITY,0.3196
same,NES,"GOMF_CARBOXYLIC_ESTER_HYDROLASE_ACTIVITY, padj 0.00853155",1.6126
same,ES,GOMF_CATALYTIC_ACTIVITY_ACTING_ON_A_TRNA,-0.5808
same,NES,"GOMF_CATALYTIC_ACTIVITY_ACTING_ON_A_TRNA, padj 7.15005e-11",-2.431
same,ES,GOMF_CATALYTIC_ACTIVITY_ACTING_ON_DNA,-0.5359
same,NES,"GOMF_CATALYTIC_ACTIVITY_ACTING_ON_DNA, padj 5.51748e-13",-2.374
same,ES,GOMF_CATION_CATION_ANTIPORTER_ACTIVITY,0.4863
same,NES,"GOMF_CATION_CATION_ANTIPORTER_ACTIVITY, padj 0.0546567",1.7655
same,ES,GOMF_CATION_TRANSMEMBRANE_TRANSPORTER_ACTIVITY,0.1933
same,NES,"GOMF_CATION_TRANSMEMBRANE_TRANSPORTER_ACTIVITY, padj 0.0600708",1.207
same,ES,GOMF_COA_HYDROLASE_ACTIVITY,0.52
same,NES,"GOMF_COA_HYDROLASE_ACTIVITY, padj 0.0696276",1.759
same,ES,GOMF_CORE_PROMOTER_SEQUENCE_SPECIFIC_DNA_BINDING,-0.4562
same,NES,"GOMF_CORE_PROMOTER_SEQUENCE_SPECIFIC_DNA_BINDING, padj 0.072132",-1.575
same,ES,GOMF_CYTOKINE_BINDING,0.2766
same,NES,"GOMF_CYTOKINE_BINDING, padj 0.0484841",1.402
same,ES,GOMF_CYTOKINE_RECEPTOR_ACTIVITY,0.3569
same,NES,"GOMF_CYTOKINE_RECEPTOR_ACTIVITY, padj 0.00978552",1.74
same,ES,GOMF_DELAYED_RECTIFIER_POTASSIUM_CHANNEL_ACTIVITY,0.4424
same,NES,"GOMF_DELAYED_RECTIFIER_POTASSIUM_CHANNEL_ACTIVITY, padj 0.0600708",1.691
same,ES,GOMF_DEMETHYLASE_ACTIVITY,-0.5386
same,NES,"GOMF_DEMETHYLASE_ACTIVITY, padj 0.0072907",-1.838
same,ES,GOMF_DNA_BINDING_TRANSCRIPTION_ACTIVATOR_ACTIVITY,-0.3206
same,NES,"GOMF_DNA_BINDING_TRANSCRIPTION_ACTIVATOR_ACTIVITY, padj 0.00368803",-1.494
same,ES,GOMF_DNA_BINDING_TRANSCRIPTION_REPRESSOR_ACTIVITY,-0.3134
same,NES,"GOMF_DNA_BINDING_TRANSCRIPTION_REPRESSOR_ACTIVITY, padj 0.0381242",-1.423
same,ES,GOMF_DNA_HELICASE_ACTIVITY,-0.6746
same,NES,"GOMF_DNA_HELICASE_ACTIVITY, padj 6.80206e-12",-2.633
same,ES,GOMF_DNA_POLYMERASE_ACTIVITY,-0.499
same,NES,"GOMF_DNA_POLYMERASE_ACTIVITY, padj 0.057276",-1.624
same,ES,GOMF_DNA_POLYMERASE_BINDING,-0.6079
same,NES,"GOMF_DNA_POLYMERASE_BINDING, padj 0.0319688",-1.763
same,ES,GOMF_DOUBLE_STRANDED_RNA_BINDING,-0.4239
same,NES,"GOMF_DOUBLE_STRANDED_RNA_BINDING, padj 0.0120781",-1.66
same,ES,GOMF_ENDONUCLEASE_ACTIVITY,-0.4125
same,NES,"GOMF_ENDONUCLEASE_ACTIVITY, padj 0.00509455",-1.716
same,ES,GOMF_ENDONUCLEASE_ACTIVITY_ACTIVE_WITH_EITHER_RIBO_OR_DEOXYRIBONUCLEIC_ACIDS_AND_PRODUCING_5_PHOSPHOMONOESTERS,-0.5195
same,NES,"GOMF_ENDONUCLEASE_ACTIVITY_ACTIVE_WITH_EITHER_RIBO_OR_DEOXYRIBONUCLEIC_ACIDS_AND_PRODUCING_5_PHOSPHOMONOESTERS, padj 0.00950889",-1.794
same,ES,GOMF_ENDOPEPTIDASE_REGULATOR_ACTIVITY,0.2991
same,NES,"GOMF_ENDOPEPTIDASE_REGULATOR_ACTIVITY, padj 0.0132396",1.521
same,ES,GOMF_ENDORIBONUCLEASE_ACTIVITY,-0.4748
same,NES,"GOMF_ENDORIBONUCLEASE_ACTIVITY, padj 0.00565255",-1.786
same,ES,GOMF_ENDORIBONUCLEASE_ACTIVITY_PRODUCING_5_PHOSPHOMONOESTERS,-0.5711
same,NES,"GOMF_ENDORIBONUCLEASE_ACTIVITY_PRODUCING_5_PHOSPHOMONOESTERS, padj 0.0162496",-1.81
same,ES,GOMF_FATTY_ACID_BINDING,0.4525
same,NES,"GOMF_FATTY_ACID_BINDING, padj 0.0492693",1.741
same,NES,"GOMF_FOUR_WAY_JUNCTION_DNA_BINDING, padj 0.0177962",-1.783
same,NES,"GOMF_GLUTATHIONE_PEROXIDASE_ACTIVITY, padj 0.00790825",2.092
same,ES,GOMF_GLYCOLIPID_BINDING,0.506
same,NES,"GOMF_GLYCOLIPID_BINDING, padj 0.0202682",1.835
same,ES,GOMF_GUANYL_NUCLEOTIDE_BINDING,-0.2896
same,NES,"GOMF_GUANYL_NUCLEOTIDE_BINDING, padj 0.0419799",-1.351
same,ES,GOMF_HEAT_SHOCK_PROTEIN_BINDING,-0.3614
same,NES,"GOMF_HEAT_SHOCK_PROTEIN_BINDING, padj 0.0624118",-1.511
same,ES,GOMF_HEME_COPPER_TERMINAL_OXIDASE_ACTIVITY,0.566
same,NES,"GOMF_HEME_COPPER_TERMINAL_OXIDASE_ACTIVITY, padj 0.00343436",2.052
same,ES,GOMF_HISTONE_DEACETYLASE_BINDING,-0.365
same,NES,"GOMF_HISTONE_DEACETYLASE_BINDING, padj 0.0452435",-1.507
same,ES,GOMF_HYDROLASE_ACTIVITY_ACTING_ON_ACID_ANHYDRIDES,-0.3454
same,ES,GOMF_HYDROLASE_ACTIVITY_ACTING_ON_CARBON_NITROGEN_BUT_NOT_PEPTIDE_BONDS_IN_CYCLIC_AMIDINES,-0.5898
same,NES,"GOMF_HYDROLASE_ACTIVITY_ACTING_ON_CARBON_NITROGEN_BUT_NOT_PEPTIDE_BONDS_IN_CYCLIC_AMIDINES, padj 0.00629559",-1.842
same,ES,GOMF_ION_TRANSMEMBRANE_TRANSPORTER_ACTIVITY,0.1805
same,NES,"GOMF_ION_TRANSMEMBRANE_TRANSPORTER_ACTIVITY, padj 0.0667134",1.183
same,ES,GOMF_ISOMERASE_ACTIVITY,-0.3436
same,NES,"GOMF_ISOMERASE_ACTIVITY, padj 0.0410059",-1.472
same,ES,GOMF_KINASE_BINDING,-0.2712
same,NES,"GOMF_KINASE_BINDING, padj 0.019253",-1.314
same,ES,GOMF_KINASE_INHIBITOR_ACTIVITY,-0.4003
same,ES,GOMF_KINASE_REGULATOR_ACTIVITY,-0.3132
same,NES,"GOMF_KINASE_REGULATOR_ACTIVITY, padj 0.0543588",-1.396
same,ES,GOMF_LIGASE_ACTIVITY_FORMING_CARBON_NITROGEN_BONDS,-0.4994
same,NES,"GOMF_LIGASE_ACTIVITY_FORMING_CARBON_NITROGEN_BONDS, padj 0.0116225",-1.777
same,ES,GOMF_LYSINE_ACETYLATED_HISTONE_BINDING,-0.5519
same,NES,"GOMF_LYSINE_ACETYLATED_HISTONE_BINDING, padj 0.0564834",-1.63
same,ES,GOMF_LYSOPHOSPHOLIPASE_ACTIVITY,0.4699
same,NES,"GOMF_LYSOPHOSPHOLIPASE_ACTIVITY, padj 0.0722653",1.706
same,ES,GOMF_MAGNESIUM_ION_BINDING,-0.3426
same,NES,"GOMF_MAGNESIUM_ION_BINDING, padj 0.0134631",-1.518
same,NES,"GOMF_MAP_KINASE_KINASE_KINASE_ACTIVITY, padj 0.0759934",-1.58
same,ES,GOMF_METALLOENDOPEPTIDASE_ACTIVITY,-0.4444
same,NES,"GOMF_METALLOENDOPEPTIDASE_ACTIVITY, padj 0.00334688",-1.785
same,ES,GOMF_METALLOPEPTIDASE_ACTIVITY,-0.3671
same,NES,"GOMF_METALLOPEPTIDASE_ACTIVITY, padj 0.0120781",-1.581
same,ES,GOMF_METHYL_CPG_BINDING,-0.6439
